Assay results taken from the OligoGym collection.
HELM strings list units from the 5' end as sugar, base in round brackets, then linkage (d deoxyribose, r ribose, m 2'-O-methyl, p phosphodiester). Strings are as the collection lists them; they lack the last nucleoside at the 3' end of the tested compound. [moe] = 2'-O-(2-methoxyethyl) (MOE); [sp] = phosphorothioate linkage; [m5C] = 5-methylcytosine

Biological target: GFAP
Test: mouse, dose not given
Conditions: ASO

| Substance | 3 h FOB score [score 0-7] |
| --- | --- |
| RNA1{[moe](T)[sp].[moe]([m5C])p.[moe](A)p.[moe]([m5C])p.d(A)[sp].d(T)[sp].d(T)[sp].d([m5C])[sp].d(A)[sp].d([m5C])[sp].d(T)[sp].d(A)[sp].d(A)[sp].d(T)[sp].[moe](A)p.[moe](T)p.[moe](T)p.[moe](T)[sp].[moe](A)}$$$$ (last 3' nucleoside missing) | 0 |
| RNA1{[moe](A)[sp].[moe](T)p.[moe](T)p.[moe](T)p.[moe](A)[sp].d(A)[sp].d([m5C])[sp].d(A)[sp].d(T)[sp].d(T)[sp].d(A)[sp].d(A)[sp].d(G)[sp].d(A)[sp].d(G)[sp].[moe]([m5C])p.[moe](A)p.[moe](G)[sp].[moe](G)}$$$$ (last 3' nucleoside missing) | 4 |
| RNA1{[moe](A)[sp].[moe](T)p.[moe](T)p.[moe](T)p.[moe](G)p.d(G)[sp].d([m5C])[sp].d(A)[sp].d(G)[sp].d(T)[sp].d(A)[sp].d(T)[sp].d(T)[sp].d(A)[sp].d([m5C])[sp].[moe]([m5C])p.[moe](T)p.[moe]([m5C])[sp].[moe](T)}$$$$ (last 3' nucleoside missing) | 2 |
| RNA1{[moe](T)[sp].[moe](A)p.[moe](T)p.[moe](T)p.[moe](A)[sp].d(G)[sp].d(G)[sp].d(A)[sp].d(T)[sp].d([m5C])[sp].d([m5C])[sp].d([m5C])[sp].d(A)[sp].[moe](T)p.[moe]([m5C])p.[moe](T)[sp].[moe](A)}$$$$ (last 3' nucleoside missing) | 3 |
| RNA1{[moe](T)[sp].[moe](A)p.[moe](G)p.[moe](T)p.[moe]([m5C])p.d(A)[sp].d(G)[sp].d([m5C])[sp].d([m5C])[sp].d(T)[sp].d(G)[sp].d(G)[sp].d(T)[sp].d(T)[sp].d(A)[sp].[moe](G)p.[moe]([m5C])p.[moe]([m5C])[sp].[moe](T)}$$$$ (last 3' nucleoside missing) | 4 |
| RNA1{[moe](T)[sp].[moe](G)p.[moe](G)p.[moe]([m5C])p.[moe](A)[sp].d(G)[sp].d(T)[sp].d(A)[sp].d(T)[sp].d(T)[sp].d(A)[sp].d([m5C])[sp].d([m5C])[sp].[moe](T)p.[moe]([m5C])p.[moe](T)[sp].[moe](A)}$$$$ (last 3' nucleoside missing) | 0 |
| RNA1{[moe](G)[sp].[moe](T)p.[moe](A)p.[moe](T)p.[moe](T)[sp].d(A)[sp].d(G)[sp].d(G)[sp].d(A)[sp].d(T)[sp].d([m5C])[sp].d([m5C])[sp].d([m5C])[sp].[moe](A)p.[moe](T)p.[moe]([m5C])[sp].[moe](T)}$$$$ (last 3' nucleoside missing) | 2 |
| RNA1{[moe]([m5C])[sp].[moe](A)p.[moe](T)p.[moe]([m5C])p.[moe](T)[sp].d(G)[sp].d([m5C])[sp].d(T)[sp].d(T)[sp].d([m5C])[sp].d([m5C])[sp].d(T)[sp].d(G)[sp].d(G)[sp].d(A)[sp].[moe](G)p.[moe](T)p.[moe](G)[sp].[moe](G)}$$$$ (last 3' nucleoside missing) | 1 |
